Data as given in patent US12624044B2, “SMARCA degraders and uses thereof” (Kymera Therapeutics, Inc., priority 2019, dated 2026).

Tests used:
Type in all cases: cell-based
SMARCA2 [1] = target: T1, SMARCA2 (Homo sapiens, UniProt P51531); assay: MSD SMARCA2 degradation in A549 cell line; conditions: 24 h; for Dmax: A549, A549 cells; for DC50: A549 cells, read-out: SMARCA2 MSD A549 degradation 24 h: Average external-Abs DC50
In short: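 A549 cells treated 24 h with compound at final 0.152-1000 nM (3-fold series, DMSO control). Lysates analyzed by MSD immunoassay using anti-SMARCA2/BRM detection and SULFO-TAG secondary antibodies; maximal degradation (Dmax %) reported as letter bins.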

SMARCA2 [2] = target: T1, SMARCA2; assay: SMARCA2 Western blot MV4-11 degradation; conditions: 24 h; for Dmax: MV4-11, MV4-11 cells, read-out: SMARCA2 WB MV411 degradation 24 h: Average Dmax %; for DC50: MV4-11 cells, read-out: SMARCA2 WB MV411 degradation 24 h: Average external-Abs DC50
Experimental: Cells were seeded into 6-well plates (MV4-11: 4×10^6 cells/well/1 ml) and 1 ml of 2× compound solution was added into the well to make the final concentration and the plates were mixed well and incubated for 24 hours (No cytotoxicity was observed). The cell were collected with media and spun at 3000 rpm for 5 minutes. The supernatant was aspirated and the well and the cells were washed with cold PBS once and combined for centrifugation again; the supernatant aspirated again. 200 ul pre-chilled RIPAlysis buffer (Boston BioProducts BP-115D) with protease/phosphatase inhibitor (Roche 05892791001/Roche 04906837001) was directly added into the tube to lyze the cells for 20 minutes on ice. The cell lysate were collected into EP tubes and spun at 13000 rpm for 20 minutes and 72 ul supernatant was transferred to a fresh EP tube containing 18 ul of 5× loading buffer (Beyotime Bio P0015) to make the loading samples. The samples were heated to 100° C. for 10 minutes and cooled to RT and microcentrifuged. 20 ul of samples were loaded onto SDS-PAGE gel (Novex, WG1402BOX) and the gel was run at 80 V for 20 minutes and 120 V for 1.5 hours. The samples were electrotransfer to a NC membrane using wet-transfer method with 250 mA for 2.5 hours. The membrane was blocked with LICOR blocking buffer (LI-COR, 927-50000) for 1 hour. The membrane was washed three times with TBST (CST #9997S), 5 minutes each. Incubation was performed with primary antibody prepared in blocking buffer with 0.1% Tween-20 (Solarbio, P8220) at 4° C. overnight (Anti-SMARCA2/BRM antibody (ab15597) 1:500; Anti-BRG1 antibody [EPR3912] (ab108318) 1:1000; Rabbit anti-Baf180 antibody [EPR15860] (Abcam, ab196022) 1:1000; mouse anti-beta-Actin (8H10D10) (CST #3700) 1:10000). The membrane was washed three times with TBST, 5 minutes each. Incubation with secondary antibody was performed for 1 hour at RT (anti-rabbit IgG (Licor, 926-32211) 1:5000; anti-mouse IgG (LI-COR, 926-68070) 1:5000). The membrane was washed three times with TBST, 5 minutes each and lastly the LiCOR was read.
The letter codes for the percentage of SMARCA degradation after 24 hours (Dmax %) include: A (>90% degradation), B (>70-90% degradation), C (50-70% degradation), and D (<50% degradation).

SMARCA4 = target: T2, SMARCA4 (Homo sapiens, UniProt P51532); assay: SMARCA4 Western blot MV4-11 degradation; conditions: 24 h; for Dmax: MV4-11, MV4-11 cells, read-out: SMARCA4 WB MV411 degradation 24 h: Average Dmax %; for DC50: MV4-11 cells, read-out: SMARCA4 WB MV411 degradation 24 h: Average external-Abs DC50
T2 construct: SMARCA2 and SMARCA4 protein degradation in MV4-11 cells; endogenous in cells; host or cells: MV4-11
T2 sequence (P51532 whole entry): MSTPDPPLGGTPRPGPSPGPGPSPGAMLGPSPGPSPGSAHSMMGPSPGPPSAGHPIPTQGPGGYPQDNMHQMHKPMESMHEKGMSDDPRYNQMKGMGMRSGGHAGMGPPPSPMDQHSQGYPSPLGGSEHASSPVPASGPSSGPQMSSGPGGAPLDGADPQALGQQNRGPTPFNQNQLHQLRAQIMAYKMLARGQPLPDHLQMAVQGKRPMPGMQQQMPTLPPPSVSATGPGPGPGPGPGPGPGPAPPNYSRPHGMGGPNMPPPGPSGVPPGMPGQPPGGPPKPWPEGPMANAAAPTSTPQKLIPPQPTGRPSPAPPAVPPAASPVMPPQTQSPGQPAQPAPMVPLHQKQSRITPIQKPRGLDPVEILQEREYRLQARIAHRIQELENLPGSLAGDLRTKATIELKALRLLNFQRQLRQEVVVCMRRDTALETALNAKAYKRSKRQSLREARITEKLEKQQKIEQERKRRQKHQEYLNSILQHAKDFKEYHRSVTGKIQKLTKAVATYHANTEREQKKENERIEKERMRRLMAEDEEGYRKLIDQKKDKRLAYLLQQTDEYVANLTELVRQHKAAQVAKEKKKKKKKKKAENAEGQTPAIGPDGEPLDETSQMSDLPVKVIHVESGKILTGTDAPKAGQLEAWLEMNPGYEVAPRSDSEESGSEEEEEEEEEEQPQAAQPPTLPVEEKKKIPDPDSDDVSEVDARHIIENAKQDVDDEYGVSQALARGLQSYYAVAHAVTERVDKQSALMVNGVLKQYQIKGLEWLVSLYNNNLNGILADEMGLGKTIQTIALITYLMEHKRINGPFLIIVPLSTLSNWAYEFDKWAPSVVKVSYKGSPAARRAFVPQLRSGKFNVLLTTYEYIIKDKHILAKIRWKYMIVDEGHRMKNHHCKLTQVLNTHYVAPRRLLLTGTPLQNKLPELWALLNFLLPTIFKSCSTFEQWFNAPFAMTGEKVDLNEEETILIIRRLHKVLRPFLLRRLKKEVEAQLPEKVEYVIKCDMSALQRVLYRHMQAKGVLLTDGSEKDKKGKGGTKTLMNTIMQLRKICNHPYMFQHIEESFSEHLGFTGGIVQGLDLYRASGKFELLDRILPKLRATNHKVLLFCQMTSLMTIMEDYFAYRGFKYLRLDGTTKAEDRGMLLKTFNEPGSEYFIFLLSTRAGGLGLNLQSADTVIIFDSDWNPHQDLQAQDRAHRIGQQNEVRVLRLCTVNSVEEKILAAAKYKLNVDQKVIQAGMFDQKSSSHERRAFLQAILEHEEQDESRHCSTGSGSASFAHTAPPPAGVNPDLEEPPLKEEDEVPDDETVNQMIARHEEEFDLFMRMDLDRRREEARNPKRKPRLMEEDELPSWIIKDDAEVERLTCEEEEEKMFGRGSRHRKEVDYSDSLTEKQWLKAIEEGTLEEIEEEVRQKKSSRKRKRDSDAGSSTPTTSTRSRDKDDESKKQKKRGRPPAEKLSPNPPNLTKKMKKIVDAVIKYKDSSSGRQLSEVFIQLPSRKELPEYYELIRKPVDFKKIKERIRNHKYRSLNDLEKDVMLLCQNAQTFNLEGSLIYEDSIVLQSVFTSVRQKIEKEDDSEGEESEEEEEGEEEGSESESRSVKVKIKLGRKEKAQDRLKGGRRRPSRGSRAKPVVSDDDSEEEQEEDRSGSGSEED
In short: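 MV4-11 cells treated with compound for 24 h, lysed in RIPA with protease/phosphatase inhibitors, and SMARCA2 and SMARCA4 (BRG1) levels assessed by Western blot with β-actin loading control and LI-COR fluorescent read-out. Maximal degradation (Dmax %) after 24 h binned into letter codes.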

SMARCA2 [3] = target: T1, SMARCA2; assay: MSD SMARCA2 degradation in NCI-H1299 cell line (24 h); design: HC: NCI-H1299 cells treated with DMSO; host or cells: NCI-H1299; conditions: for Dmax: NCI-H1299, NCI-H1299 cells; for DC50: NCI-H1299 cells, read-out: SMARCA2 MSD H1299 degradation 24 h: External Abs-DC50
In short: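 NCI-H1299 cells treated 24 h with a 3-fold, 9-point compound dilution series, then lysed in RIPA with protease inhibitor. SMARCA2 in lysate-coated MSD plates detected with rabbit anti-SMARCA2 (0.3 ug/ml) and SULFO-TAG secondary. Relative SMARCA2 level normalized between DMSO-treated H1299 cells and SMARCA2-negative A2780 cells; Dmax % binned A–D.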

T1 sequence (P51531 whole entry): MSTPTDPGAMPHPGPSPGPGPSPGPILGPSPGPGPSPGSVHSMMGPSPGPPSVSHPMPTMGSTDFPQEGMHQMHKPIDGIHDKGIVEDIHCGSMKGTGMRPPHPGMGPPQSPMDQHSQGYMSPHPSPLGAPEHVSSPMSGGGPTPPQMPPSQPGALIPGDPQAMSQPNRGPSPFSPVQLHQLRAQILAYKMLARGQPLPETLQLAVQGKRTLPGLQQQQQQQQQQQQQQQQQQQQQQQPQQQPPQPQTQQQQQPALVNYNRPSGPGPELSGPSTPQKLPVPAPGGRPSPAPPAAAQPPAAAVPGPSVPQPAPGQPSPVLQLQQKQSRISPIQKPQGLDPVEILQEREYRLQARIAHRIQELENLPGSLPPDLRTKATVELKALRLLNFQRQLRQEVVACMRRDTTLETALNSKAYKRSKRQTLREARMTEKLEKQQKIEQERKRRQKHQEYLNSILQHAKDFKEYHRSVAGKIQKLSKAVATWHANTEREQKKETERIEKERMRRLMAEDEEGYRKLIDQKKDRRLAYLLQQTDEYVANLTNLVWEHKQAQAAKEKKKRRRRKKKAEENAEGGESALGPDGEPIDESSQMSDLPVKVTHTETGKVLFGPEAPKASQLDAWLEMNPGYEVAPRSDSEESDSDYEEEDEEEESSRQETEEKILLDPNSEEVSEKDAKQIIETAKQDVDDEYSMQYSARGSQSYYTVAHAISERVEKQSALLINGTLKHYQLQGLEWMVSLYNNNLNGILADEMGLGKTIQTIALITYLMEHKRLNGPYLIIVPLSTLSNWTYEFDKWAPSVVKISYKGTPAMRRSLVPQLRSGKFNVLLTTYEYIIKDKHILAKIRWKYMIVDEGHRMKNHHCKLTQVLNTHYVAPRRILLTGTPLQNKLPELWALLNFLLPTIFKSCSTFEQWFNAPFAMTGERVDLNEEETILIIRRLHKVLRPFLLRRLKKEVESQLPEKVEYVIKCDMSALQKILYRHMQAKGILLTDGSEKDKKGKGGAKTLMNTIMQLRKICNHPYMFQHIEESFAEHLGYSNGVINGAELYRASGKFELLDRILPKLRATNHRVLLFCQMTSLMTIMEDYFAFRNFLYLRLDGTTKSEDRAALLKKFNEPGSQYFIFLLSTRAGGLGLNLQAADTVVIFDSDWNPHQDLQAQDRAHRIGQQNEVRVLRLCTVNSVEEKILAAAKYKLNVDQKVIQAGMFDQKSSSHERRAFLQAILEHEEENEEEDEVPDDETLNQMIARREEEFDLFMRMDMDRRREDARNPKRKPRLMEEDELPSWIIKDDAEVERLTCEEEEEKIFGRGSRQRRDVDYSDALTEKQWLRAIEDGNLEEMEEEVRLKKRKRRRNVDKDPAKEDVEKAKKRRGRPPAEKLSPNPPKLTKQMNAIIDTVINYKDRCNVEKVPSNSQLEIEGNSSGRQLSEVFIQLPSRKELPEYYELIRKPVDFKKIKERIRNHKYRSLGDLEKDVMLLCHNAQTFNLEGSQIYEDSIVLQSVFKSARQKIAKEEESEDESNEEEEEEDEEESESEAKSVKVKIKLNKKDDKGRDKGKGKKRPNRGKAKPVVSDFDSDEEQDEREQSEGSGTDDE

Row | Compound | Dmax (SMARCA2 [1]) | DC50 (SMARCA2 [1]) | Dmax (SMARCA2 [2]) | DC50 (SMARCA2 [2]) | Dmax (SMARCA4) | DC50 (SMARCA4) | Dmax (SMARCA2 [3]) | DC50 (SMARCA2 [3])
1 | Cc1ncsc1-c1ccc(CNC(=O)[C@@H]2C[C@@H](O)CN2C(=O)[C@@H](NC(=O)CN2CCN([C@H]3CC[C@@H](c4cnc(N5C6CCC5CN(c5cc(-c7ccccc7O)nnc5N)C6)nc4)CC3)CC2)C(C)(C)C)cc1 (single isomer, unassigned) [I-445] | > 90% | 100 to 500 nM | > 90% | < 100 nM | > 90% | < 100 nM |  | 
2 | Cc1ncsc1-c1ccc(CNC(=O)[C@@H]2C[C@@H](O)CN2C(=O)[C@@H](NC(=O)CN2CCN([C@H]3CC[C@H](c4cnc(N5C6CCC5CN(c5cc(-c7ccccc7O)nnc5N)C6)nc4)CC3)CC2)C(C)(C)C)cc1 (single isomer, unassigned) [I-446, (2S,4R)-1-((2S)-2-(2-(4-((1r,4S)-4-(2-(3-(3-amino-6-(2-hydroxyphenyl)pyridazin-4-yl)-3,8-diazabicyclo[3.2.1]octan-8-yl)pyrimidin-5-yl)cyclohexyl)piperazin-1-yl)acetamido)-3,3-dimethylbutanoyl)-4-hydroxy-N-(4-(4-methylthiazol-5-yl)benzyl)pyrrolidine-2-carboxamide] | > 90% |  | > 90% |  | > 90% |  |  | 
3 | Cc1ncsc1-c1ccc(CNC(=O)[C@@H]2C[C@@H](O)CN2C(=O)[C@@H](NC(=O)CN2CCN([C@H]3CC[C@H](c4cnc(N5C6CCC5CN(c5cc(-c7ccccc7O)nnc5N)C6)nc4)CC3)CC2)C(C)(C)C)cc1 (single isomer, unassigned) [I-446] |  | < 100 nM |  | < 100 nM |  | < 100 nM |  | 
4 | Cn1c(=O)n(C2CCC(=O)NC2=O)c2ccc(C3CC4(C3)CC(N3CCC(c5cnc(N6C7CCC6CN(c6cc(-c8ccccc8O)nnc6N)C7)nc5)CC3)C4)cc21 (single isomer, unassigned) [I-536 (P1), 3-(5-(6-(4-(2-(3-(3-amino-6-(2-hydroxyphenyl)pyridazin-4-yl)-3,8-diazabicyclo[3.2.1]octan-8-yl)pyrimidin-5-yl)piperidin-1-yl)spiro[3.3]heptan-2-yl)-3-methyl-2-oxo-2,3-dihydro-1H-benzo[d]imidazol-1-yl)piperidine-2,6-dione] |  | < 100 nM |  | < 100 nM |  | < 100 nM |  | 
5 | Cn1c(=O)n(C2CCC(=O)NC2=O)c2ccc([C@H]3CC[C@@H](N4CCC(c5cnc(N6C7CCC6CN(c6cc(-c8ccccc8O)nnc6N)C7)nc5)CC4)CC3)cc21 (stereo partly drawn) [I-277] | > 90% | < 100 nM | > 90% | < 100 nM | > 90% | < 100 nM |  | 
6 | Cn1c(=O)n(C2CCC(=O)NC2=O)c2ccc(CCCN3CCN(c4cnc(N5C6CCC5CN(c5cc(-c7ccccc7O)nnc5N)C6)nc4)CC3)cc21 (stereo not drawn) [I-285] | > 90% | < 100 nM |  |  | > 90% | < 100 nM | > 90% | < 100 nM
7 | Cn1c(=O)n(C2CCC(=O)NC2=O)c2ccc(C3CCC(N4CCC(c5cnc(N6C7CCC6CN(c6cc(-c8ccccc8O)nnc6N)C7)nc5)CC4)CC3)cc21 (stereo not drawn) [I-290] | > 90% | < 100 nM |  |  | > 90% | < 100 nM | > 90% | < 100 nM
8 | Cc1ncsc1-c1ccc(CNC(=O)[C@@H]2C[C@@H](O)CN2C(=O)[C@@H](NC(=O)N2CCC(c3cnc(N4C5CCC4CN(c4cc(-c6ccccc6O)nnc4N)C5)nc3)CC2)C(C)(C)C)cc1 [I-448] | > 90% | 100 to 500 nM |  |  | > 90% | < 100 nM | 70 to 90% | 100 to 500 nM
9 | Cc1ncsc1-c1ccc(CNC(=O)[C@@H]2C[C@@H](O)CN2C(=O)[C@@H](NC(=O)CCN2CCC(c3cnc(N4C5CCC4CN(c4cc(-c6ccccc6O)nnc4N)C5)nc3)CC2)C(C)(C)C)cc1 [I-449] | < 50% | > 1000 nM |  |  | < 50% | 100 to 500 nM | < 50% | 100 to 500 nM
10 | Cc1ncsc1-c1ccc(CNC(=O)[C@@H]2C[C@@H](O)CN2C(=O)[C@@H](NC(=O)CN(C)Cc2ccc(N3CCN(c4cc(-c5ccccc5O)nnc4N)CC3)cc2)C(C)(C)C)cc1 [I-462] | 70 to 90% | 501 to 1000 nM |  |  | < 50% | > 1000 nM | 70 to 90% | 501 to 1000 nM
11 | Cc1ncsc1-c1ccc(CNC(=O)[C@@H]2C[C@@H](O)CN2C(=O)[C@@H](NC(=O)CN(C)CC#Cc2cnc(N3C4CCC3CN(c3cc(-c5ccccc5O)nnc3N)C4)nc2)C(C)(C)C)cc1 [I-495] | 70 to 90% | 100 to 500 nM |  |  | > 90% | < 100 nM | 70 to 90% | 100 to 500 nM
12 | Cc1cc(-c2scnc2C)ccc1CNC(=O)[C@@H]1C[C@@H](O)CN1C(=O)[C@@H](NC(=O)CN1CCC(c2cnc(N3C4CCC3CN(c3cc(-c5ccccc5O)nnc3N)C4)nc2)CC1)C(C)(C)C [I-521] | > 90% | 100 to 500 nM |  |  | > 90% | 100 to 500 nM |  | 
13 | Nc1nnc(-c2ccccc2O)cc1N1CC2CCC(C1)N2c1ncc(C2CCN(CCCNC(=O)COc3ccc4c(c3)CCCN4C(=O)CCl)CC2)cn1 [I-523, N-[3-[4-[2-[3-[3-amino-6-(2-hydroxyphenyl)pyridazin-4-yl]-3,8-diazabicyclo[3.2.1]octan-8-yl]pyrimidin-5-yl]-1-piperidyl]propyl]-2-[[1-(2-chloroacetyl)-3,4-dihydro-2H-quinolin-6-yl]oxy]acetamide] | < 50% | > 1000 nM |  |  | > 90% | > 1000 nM |  | 
14 | Nc1nnc(-c2ccccc2O)cc1N1CC2CCC(C1)N2c1ncc(C2CCN(CCCCCNC(=O)COc3ccc4c(c3)CCCN4C(=O)CCl)CC2)cn1 [I-524] | < 50% | > 1000 nM |  |  | 70 to 90% | > 1000 nM |  | 
15 | Nc1nnc(-c2ccccc2O)cc1N1CC2CCC(C1)N2c1ncc(C2CCN(CCCCCCCCCNC(=O)COc3ccc4c(c3)CCCN4C(=O)CCl)CC2)cn1 [I-525] | < 50% | > 1000 nM |  |  | 50 to 70% | > 1000 nM |  | 
16 | NCC#Cc1nccc(N2C3CCC2CN(c2cc(-c4ccccc4O)nnc2N)C3)n1 [I-534, 2-[6-amino-5-[8-[2-(3-aminoprop-1-ynyl)pyrimidin-4-yl]-3,8-diazabicyclo[3.2.1]octan-3-yl]pyridazin-3-yl]phenol] | < 50% | > 1000 nM |  |  | 70 to 90% | > 1000 nM | > 90% | 100 to 500 nM
17 | CC(C)(C)[C@H](NC(=O)[C@H]1CC2(C1)C[C@H](N1CCC(c3cnc(N4C5CCC4CN(c4cc(-c6ccccc6O)nnc4N)C5)nc3)CC1)C2)C(=O)N1C[C@H](O)C[C@H]1C(=O)NOc1ccc(-c2ccccc2F)cc1 (stereo partly drawn) [I-537, (2S,4R)-1-[(2S)-2-[[2-[4-[2-[3-[3-amino-6-(2-hydroxyphenyl)pyridazin-4-yl]-3,8-diazabicyclo[3.2.1]octan-8-yl]pyrimidin-5-yl]-1-piperidyl]spiro[3.3]heptane-6-carbonyl]amino]-3,3-dimethyl-butanoyl]-N-[4-(2-fluorophenyl)phenoxy]-4-hydroxy-pyrrolidine-2-carboxamide] |  | > 1000 nM |  | > 1000 nM |  |  |  | 
